“And” between values parts separate entries of the source, which are not always exact repeats. Equal values may be shown once. Inconclusive results and toxic doses are left out.
Tested on: CD2F1 mice, P388/DHAQ leukemia ip, median survival T/C
Experiment: NCI In Vivo Anticancer Drug Screen. Data for tumor model P388 Leukemia resistant to Dihydroxy Anthracenedione; NSC 299195 (intraperitoneal) in CD2F1 (CDF1) mice
Details: endpoint: median survival time, higher = longer survival
Method: The antitumor activity of compounds was measured in mice bearing transplantable tumors. Survival or tumor size were measured and the results are expressed as the measurement made in the treated group (T) divided by the measurement made in the vehicle treated control group (C). The tumor model used in this assay is P388 Leukemia resistant to Dihydroxy Anthracenedione; NSC 299195 (intraperitoneal) in CD2F1 (CDF1) mice

[1] = dose: 3.24 mg/kg/injection, schedule: Q04DX002 (ip), vehicle: saline
[2] = dose: 15.0 mg/kg/injection, schedule: Q04DX002 (ip), vehicle: saline

SMILES: COc1cccc2c1C(=O)c1c(O)c3c(c(O)c1C2=O)C[C@@](O)(C(=O)CO)C[C@@H]3OC1CC(N)C(O)C(C)O1 (stereo partly drawn)
- T/C (dose: 0.97 mg/kg/injection, schedule: Q04DX002 (ip), vehicle: saline): 118 % of control
- T/C (dose: 1.3 mg/kg/injection, schedule: Q04DX002 (ip), vehicle: saline): 115 % of control and 120 % of control
- T/C (dose: 2.16 mg/kg/injection, schedule: Q04DX002 (ip), vehicle: saline): 120 % of control
- T/C (dose: 2.7 mg/kg/injection, schedule: Q04DX002 (ip), vehicle: saline): 119 % of control
- T/C (dose: 3.6 mg/kg/injection, schedule: Q04DX002 (ip), vehicle: saline): 123 % of control
- T/C (dose: 6.0 mg/kg/injection, schedule: Q04DX002 (ip), vehicle: saline): 121 % of control
- T/C (dose: 10.0 mg/kg/injection, schedule: Q04DX002 (ip), vehicle: saline): 102 % of control and 120 % of control

SMILES: CCC1(O)CC2CN(CCc3c([nH]c4ccccc34)C(C(=O)OC)(c3cc4c(cc3OC)N(C)C3C(O)(C(N)=O)C(O)C5(CC)C=CCN6CCC43C65)C2)C1 (stereo not drawn) (tested in a mixture with another compound)
- T/C (dose: 0.65 mg/kg/injection, schedule: Q04DX003 (ip), vehicle: clinical formulation): 173 % of control
- T/C (dose: 1.08 mg/kg/injection, schedule: Q04DX003 (ip), vehicle: clinical formulation): 182 % of control
- T/C (dose: 1.8 mg/kg/injection, schedule: Q04DX003 (ip), vehicle: clinical formulation): 208 % of control
- T/C (dose: 3.0 mg/kg/injection, schedule: Q04DX003 (ip), vehicle: clinical formulation): 87 % of control

SMILES: N[C@@H](Cc1ccc(N(CCCl)CCCl)cc1)C(=O)O
- T/C (dose: 1.94 mg/kg/injection, schedule: Q04DX002 (ip), vehicle: saline): 114 % of control and 119 % of control and 120 % of control
- T/C (dose: 1.94 mg/kg/injection, schedule: Q04DX003 (ip), vehicle: saline): 106 % of control
- T/C [1]: 117 % of control and 118 % of control
- T/C (dose: 3.24 mg/kg/injection, schedule: Q04DX003 (ip), vehicle: saline): 117 % of control
- T/C (dose: 9.0 mg/kg/injection, schedule: Q04DX002 (ip), vehicle: saline): 157 % of control and 160 % of control and 163 % of control
- T/C (dose: 9.0 mg/kg/injection, schedule: Q04DX003 (ip), vehicle: saline): 157 % of control
- T/C [2]: 102 % of control and 118 % of control
- T/C (dose: 15.0 mg/kg/injection, schedule: Q04DX003 (ip), vehicle: saline): 152 % of control and 156 % of control

SMILES: COc1c(O)c2c(c3cc(C(=O)N4CCc5c4c(O)c(OC)c4[nH]c(C(=O)N6CC7CC78C6=CC(=O)c6[nH]cc(C)c68)cc54)[nH]c13)CCN2C(N)=O (stereo not drawn)
- T/C (dose: 0.05 mg/kg/injection, schedule: Q04DX003 (ip), vehicle: DMSO): 122 % of control
- T/C (dose: 0.09 mg/kg/injection, schedule: Q04DX003 (ip), vehicle: DMSO): 119 % of control
- T/C (dose: 13.0 micrograms/kg/injection, schedule: Q01DX009 (ip), vehicle: DMSO): 100 % of control
- T/C (dose: 21.6 micrograms/kg/injection, schedule: Q01DX009 (ip), vehicle: DMSO): 96 % of control
- T/C (dose: 36.0 micrograms/kg/injection, schedule: Q01DX009 (ip), vehicle: DMSO): 94 % of control
- T/C (dose: 38.9 micrograms/kg/injection, schedule: Q04DX003 (ip), vehicle: DMSO): 114 % of control
- T/C (dose: 60.0 micrograms/kg/injection, schedule: Q01DX009 (ip), vehicle: DMSO): 93 % of control
- T/C (dose: 64.8 micrograms/kg/injection, schedule: Q04DX003 (ip), vehicle: DMSO): 114 % of control
- T/C (dose: 100.0 micrograms/kg/injection, schedule: Q01DX009 (ip), vehicle: DMSO): 94 % of control
- T/C (dose: 108.0 micrograms/kg/injection, schedule: Q04DX003 (ip), vehicle: DMSO): 121 % of control
- T/C (dose: 180.0 micrograms/kg/injection, schedule: Q04DX003 (ip), vehicle: DMSO): 105 % of control
- T/C (dose: 300.0 micrograms/kg/injection, schedule: Q04DX003 (ip), vehicle: DMSO): 102 % of control
- T/C (dose: 300.0 micrograms/kg/injection, schedule: Q04DX003 (ip), vehicle: saline): 100 % of control

SMILES: O=C(O)CCCc1ccc(N(CCCl)CCCl)cc1
- T/C (dose: 2.59 mg/kg/injection, schedule: Q04DX002 (ip), vehicle: saline with Tween-80): 100 % of control
- T/C (dose: 4.32 mg/kg/injection, schedule: Q04DX002 (ip), vehicle: saline with Tween-80): 101 % of control
- T/C (dose: 7.2 mg/kg/injection, schedule: Q04DX002 (ip), vehicle: saline with Tween-80): 100 % of control
- T/C (dose: 12.0 mg/kg/injection, schedule: Q04DX002 (ip), vehicle: saline with Tween-80): 100 % of control
- T/C (dose: 20.0 mg/kg/injection, schedule: Q04DX002 (ip), vehicle: saline with Tween-80): 106 % of control

SMILES: O=c1[nH]cc(F)c(=O)[nH]1
- T/C (dose: 13.0 mg/kg/injection, schedule: Q04DX003 (ip), vehicle: saline): 104 % of control
- T/C (dose: 60.0 mg/kg/injection, schedule: Q04DX003 (ip), vehicle: saline): 116 % of control and 226 % of control
- T/C (dose: 100.0 mg/kg/injection, schedule: Q04DX003 (ip), vehicle: saline): 109 % of control

SMILES: CC[C@](O)(C(=O)O)c1cc2n(c(=O)c1CO)Cc1cc3ccccc3nc1-2
- T/C (dose: 6.48 mg/kg/injection, schedule: Q04DX003 (ip), vehicle: saline): 102 % of control and 117 % of control and 121 % of control
- T/C (dose: 7.78 mg/kg/injection, schedule: Q04DX003 (ip), vehicle: saline): 121 % of control
- T/C (dose: 10.8 mg/kg/injection, schedule: Q04DX003 (ip), vehicle: saline): 115 % of control and 120 % of control
- T/C (dose: 18.0 mg/kg/injection, schedule: Q04DX003 (ip), vehicle: saline): 115 % of control
- T/C (dose: 30.0 mg/kg/injection, schedule: Q04DX003 (ip), vehicle: saline): 155 % of control
- T/C (dose: 36.0 mg/kg/injection, schedule: Q04DX003 (ip), vehicle: saline): 164 % of control
- T/C (dose: 50.0 mg/kg/injection, schedule: Q04DX003 (ip), vehicle: saline): 180 % of control

SMILES: COc1cc([C@@H]2c3cc4c(cc3[C@@H](OC3OC5COC(C)OC5C(O)C3O)[C@H]3COC(=O)[C@H]23)OCO4)cc(OC)c1O (stereo partly drawn)
- T/C (dose: 7.78 mg/kg/injection, schedule: Q04DX003 (ip), vehicle: water): 123 % of control
- T/C (dose: 13.0 mg/kg/injection, schedule: Q04DX003 (ip), vehicle: water): 124 % of control
- T/C (dose: 18.0 mg/kg/injection, schedule: Q04DX003 (ip), vehicle: clinical formulation): 155 % of control
- T/C (dose: 18.0 mg/kg/injection, schedule: Q04DX003 (ip), vehicle: water): 153 % of control
- T/C (dose: 30.0 mg/kg/injection, schedule: Q04DX003 (ip), vehicle: clinical formulation): 162 % of control
- T/C (dose: 30.0 mg/kg/injection, schedule: Q04DX003 (ip), vehicle: water): 105 % of control
- T/C (dose: 50.0 mg/kg/injection, schedule: Q04DX003 (ip), vehicle: clinical formulation): 166 % of control

SMILES: O=C1c2ccccc2C(=O)c2c(NCCNCCO)ccc(O)c21
- T/C (dose: 19.4 mg/kg/injection, schedule: Q04DX003 (ip), vehicle: saline): 121 % of control
- T/C (dose: 32.4 mg/kg/injection, schedule: Q04DX003 (ip), vehicle: saline): 107 % of control
- T/C (dose: 54.0 mg/kg/injection, schedule: Q04DX003 (ip), vehicle: saline): 90 % of control

SMILES: Cc1c2ccncc2c(C)c2c1[nH]c1ccccc12
- T/C (dose: 13.0 mg/kg/injection, schedule: Q04DX003 (ip), vehicle: saline with Tween-80): 101 % of control and 107 % of control
- T/C (dose: 25.9 mg/kg/injection, schedule: Q04DX002 (ip), vehicle: saline with Tween-80): 97 % of control
- T/C (dose: 32.4 mg/kg/injection, schedule: Q04DX002 (ip), vehicle: Klucel (hydroxypropylcellulose) (HPC)): 111 % of control
- T/C (dose: 43.2 mg/kg/injection, schedule: Q04DX002 (ip), vehicle: saline with Tween-80): 105 % of control
- T/C (dose: 54.0 mg/kg/injection, schedule: Q04DX002 (ip), vehicle: Klucel (hydroxypropylcellulose) (HPC)): 100 % of control
- T/C (dose: 60.0 mg/kg/injection, schedule: Q04DX003 (ip), vehicle: saline with Tween-80): 116 % of control and 223 % of control and 98 % of control
- T/C (dose: 72.0 mg/kg/injection, schedule: Q04DX002 (ip), vehicle: saline with Tween-80): 112 % of control
- T/C (dose: 90.0 mg/kg/injection, schedule: Q04DX002 (ip), vehicle: Klucel (hydroxypropylcellulose) (HPC)): 88 % of control
- T/C (dose: 120.0 mg/kg/injection, schedule: Q04DX002 (ip), vehicle: saline with Tween-80): 114 % of control
- T/C (dose: 150.0 mg/kg/injection, schedule: Q04DX002 (ip), vehicle: Klucel (hydroxypropylcellulose) (HPC)): 83 % of control

SMILES: O=C(Nc1ccc(C2=NCCN2)cc1)c1ccc(C(=O)Nc2ccc(C3=NCCN3)cc2)c(Cl)c1
- T/C (dose: 16.2 mg/kg/injection, schedule: Q04DX003 (ip), vehicle: saline with Tween-80): 94 % of control
- T/C (dose: 27.0 mg/kg/injection, schedule: Q04DX003 (ip), vehicle: saline with Tween-80): 98 % of control
- T/C (dose: 45.0 mg/kg/injection, schedule: Q04DX003 (ip), vehicle: saline with Tween-80): 97 % of control

SMILES: S=P(N1CC1)(N1CC1)N1CC1
- T/C [1]: 103 % of control
- T/C (dose: 5.4 mg/kg/injection, schedule: Q04DX002 (ip), vehicle: saline): 122 % of control
- T/C [2]: 183 % of control
